Data on twelve compounds can be found in patent US20240294499A1, “TARGETED PROTEIN DEGRADATION USING BIFUNCTIONAL COMPOUNDS THAT BIND UBIQUITIN LIGASE AND TARGET MCL-1 PROTEIN” (Captor Therapeutics S.A., priority 2021, published 2024).

Assay [1] deals with ARH-77 cells. Description: Cell viability assay (CellTiter-Glo), ARH-77. It is filed as cell-based. The conditions noted are these: Homo sapiens, ARH-77, 24 hours incubation, 1% FBS, read-out: Average pIC50 by molecule ARH-77 (converted). A digest of the protocol:
(§1)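 Luminescent ATP readout (CellTiter-Glo) at 24 hours measured viability, expressed relative to DMSO-treated wells. Compound was added directly to the medium as a 9–12-point threefold series starting at 30 uM, at 0.5% final DMSO. The medium contained FBS reduced to 1%.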

Assay [2] concerns the target [MCL-1]-[compound of formula (I)]-[CRBN/DDB1] complex (Homo sapiens, UniProt Q07820+Q96SW2). The assay is described as follows: HTRF ternary complex assay. It counts as binding. The conditions noted are these: ternary complex formation; read-out: HTRF ternary complex Average pEC50 by molecule (converted). As to the method: The effect of the bifunctional compounds of the invention on the formation of a ternary complex composed of [MCL-1]-[compound of formula (I)]-[CRBN/DDB1] was investigated.
Mix of protein solution were prepared: • 48 nM hMcl-1 and 105.6 nM CRBN was prepared in PPI Europium detection buffer with 2 mM DTT. • Acceptor and donor stock solutions were diluted 100 times in PPI Europium detection buffer. Equal volumes of both reagents were mixed. Finally giving 3 nM of Streptavidin-Eu cryptate […] and 6.67 nM of Anti-6× his-d2 […].
5 μl of protein mix was dispensed to all wells. The tested compounds in dose-response were dispensed onto a white 384-well low volume plate (Greiner, 784075). DMSO was backfilled to all wells, resulting in a final DMSO content of 0.5%. Wells containing only DMSO served as background. Next, 5 μl of solution with donor and acceptor was added to the wells.
The plate was sealed with transparent film and shaken using a VibroTurbulator for 60 see at level 3. The plate was then spun down shortly (10 s, 1000 rcf) and incubated at 25° C. for 180 min.
The read-out was performed with plate reader (Pherastar, BMG Labtech) in time resolved fluorescence mode. Filterset: TR 337 665 620.
The results were analyzed as follows: • 1) an average of fluorescence for background signal was calculated and used as a negative control; • 2) raw fluorescence values for tested compounds were normalized against negative controls; • 3) bell shape curve was fitted to a gaussian distribution using a non-linear least squares Gauss-Newton algorithm; • 4) EC50 and pEC50 values were determined.
A general note: TR-FRET usually uses a lanthanide donor and a delayed reading to cut background.

In assay [3] the test system is MV-4-11 cells. The assay is described as follows: Cell viability assay (CellTiter-Glo), MV-4-11. It counts as cell-based. The conditions noted are these: Homo sapiens, MV4-11, 24 hours incubation, 1% FBS, read-out: Average pIC50 by molecule MV-4-11 (converted). Summed up:
as §1
In general terms: Cellular ATP, detected with luciferase, serves as a proxy for viable cell number.

Molecules are shown by their SMILES. A value given as a limit tells only on which side of the number the result lay.

Chain of [MCL-1]-[compound of formula (I)]-[CRBN/DDB1] complex (Q07820 whole entry): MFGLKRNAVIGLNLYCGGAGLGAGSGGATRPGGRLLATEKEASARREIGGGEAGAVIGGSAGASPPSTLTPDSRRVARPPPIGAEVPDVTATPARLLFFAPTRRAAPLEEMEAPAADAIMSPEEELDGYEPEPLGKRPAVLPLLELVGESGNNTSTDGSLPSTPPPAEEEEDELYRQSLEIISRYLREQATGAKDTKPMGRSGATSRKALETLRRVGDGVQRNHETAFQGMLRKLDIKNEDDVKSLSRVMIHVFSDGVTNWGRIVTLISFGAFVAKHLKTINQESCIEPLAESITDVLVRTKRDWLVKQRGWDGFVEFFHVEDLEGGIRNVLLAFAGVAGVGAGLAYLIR
Chain of [MCL-1]-[compound of formula (I)]-[CRBN/DDB1] complex (Q96SW2 whole entry): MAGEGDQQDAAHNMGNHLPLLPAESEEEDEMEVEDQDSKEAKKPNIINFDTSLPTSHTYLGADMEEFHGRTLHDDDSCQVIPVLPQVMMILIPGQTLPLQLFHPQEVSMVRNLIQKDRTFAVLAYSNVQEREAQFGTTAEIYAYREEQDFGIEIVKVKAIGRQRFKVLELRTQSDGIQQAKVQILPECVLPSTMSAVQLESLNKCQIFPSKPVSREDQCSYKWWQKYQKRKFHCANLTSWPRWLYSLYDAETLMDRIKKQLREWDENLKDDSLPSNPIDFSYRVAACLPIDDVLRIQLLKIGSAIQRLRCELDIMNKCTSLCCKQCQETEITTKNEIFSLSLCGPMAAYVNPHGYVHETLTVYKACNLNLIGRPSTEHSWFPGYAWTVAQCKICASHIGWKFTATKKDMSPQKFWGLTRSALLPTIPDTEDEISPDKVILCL
Chain of [MCL-1]-[compound of formula (I)]-[CRBN/DDB1] complex (Q16531 whole entry partner): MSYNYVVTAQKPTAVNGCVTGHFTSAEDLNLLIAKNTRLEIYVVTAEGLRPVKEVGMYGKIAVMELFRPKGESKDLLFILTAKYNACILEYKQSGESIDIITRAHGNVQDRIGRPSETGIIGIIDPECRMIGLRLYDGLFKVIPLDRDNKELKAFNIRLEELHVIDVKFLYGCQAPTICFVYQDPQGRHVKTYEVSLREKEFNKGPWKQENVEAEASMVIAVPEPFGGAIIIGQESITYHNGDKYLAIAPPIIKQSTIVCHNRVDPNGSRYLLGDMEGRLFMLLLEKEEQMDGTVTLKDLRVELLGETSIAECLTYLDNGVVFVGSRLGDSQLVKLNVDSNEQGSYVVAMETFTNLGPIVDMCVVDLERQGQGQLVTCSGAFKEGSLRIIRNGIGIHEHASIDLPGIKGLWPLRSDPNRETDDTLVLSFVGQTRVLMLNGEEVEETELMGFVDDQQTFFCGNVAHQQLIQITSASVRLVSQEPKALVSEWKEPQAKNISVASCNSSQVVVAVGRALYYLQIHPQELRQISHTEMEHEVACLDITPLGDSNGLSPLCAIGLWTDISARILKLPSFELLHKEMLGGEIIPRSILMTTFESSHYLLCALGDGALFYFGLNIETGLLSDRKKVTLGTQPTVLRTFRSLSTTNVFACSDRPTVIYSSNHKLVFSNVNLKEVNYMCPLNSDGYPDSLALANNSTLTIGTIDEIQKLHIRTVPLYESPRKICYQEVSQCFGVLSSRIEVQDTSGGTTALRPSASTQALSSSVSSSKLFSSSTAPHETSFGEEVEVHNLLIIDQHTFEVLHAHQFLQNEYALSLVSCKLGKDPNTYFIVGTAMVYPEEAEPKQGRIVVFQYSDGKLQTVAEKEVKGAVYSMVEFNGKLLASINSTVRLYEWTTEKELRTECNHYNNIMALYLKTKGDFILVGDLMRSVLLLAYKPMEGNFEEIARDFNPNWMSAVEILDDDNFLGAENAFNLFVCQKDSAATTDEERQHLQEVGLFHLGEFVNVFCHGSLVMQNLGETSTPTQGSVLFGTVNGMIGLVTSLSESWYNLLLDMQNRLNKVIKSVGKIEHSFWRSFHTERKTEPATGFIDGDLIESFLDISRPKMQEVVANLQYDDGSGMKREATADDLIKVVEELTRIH

Regarding `Cc1nn(C)c(C)c1-c1c(Cl)ccc2c(CCCOc3cccc4cc(F)ccc34)c(C(=O)O)n(CCOCCCn3c(C)nc4c(C(=O)NC5CCC(=O)NC5=O)cccc43)c12` (stereo not drawn) [Compound 282, 6-Chloro-1-[2-(3-{4-[(2,6-dioxopiperidin-3-yl)carbamoyl]-2-methyl-1H-1,3-benzodiazol-1-yl}propoxy)ethyl]-3-{3-[(6-fluoronaphthalen-1-yl)oxy]propyl}-7-(1,3,5-trimethyl-1H-pyrazol-4-yl)-1H-indole-2-carboxylic acid], the IC50 in assay [1] was > 3160 nM; in assay [3], ≤ 31.6 nM. Moreover, the EC50 in assay [2] was < 100 nM.
Taken in the same sequence, the figures for `Cc1nc2cc(NCC(=O)N3CCN(CCn4c(C(=O)O)c(CCCOc5cccc6cc(F)ccc56)c5ccc(Cl)c(-c6c(C)nn(C)c6C)c54)CC3)ccc2cc1C1CCC(=O)NC1=O` (stereo not drawn) [Compound 285, 6-Chloro-1-(2-(4-((3-(2,6-dioxopiperidin-3-yl)-2-methylquinolin-7-yl)glycyl)piperazin-1-yl)ethyl)-3-(3-((6-fluoronaphthalen-1-yl)oxy)propyl)-7-(1,3,5-trimethyl-1H-pyrazol-4-yl)-1H-indole-2-carboxylic acid] were > 10000 nM, ≤ 100 nM and < 10 nM.
With `Cc1nn(C)c(C)c1-c1c(Cl)ccc2c(CCCOc3cccc4cc(F)ccc34)c(C(=O)O)n(CCC3CN(C(=O)COc4cccc5c4CN(C4CCC(=O)NC4=O)C5=O)C3)c12` (stereo not drawn) [Compound 299, 6-Chloro-1-(2-(1-(2-((2-(2,6-dioxopiperidin-3-yl)-1-oxoisoindolin-4-yl)oxy)acetyl)azetidin-3-yl)ethyl)-3-(3-((6-fluoronaphthalen-1-yl)oxy)propyl)-7-(1,3,5-trimethyl-1H-pyrazol-4-yl)-1H-indole-2-carboxylic acid], the figures for the IC50 in assay [1] and in assay [3] were > 10000 nM and ≤ 100 nM, respectively. The EC50 in assay [2] was < 100 nM.
Take `Cc1nn(C)c(C)c1-c1c(Cl)ccc2c(CCCOc3cccc4cc(F)ccc34)c(C(=O)O)n(CCN3CC4(CCN(C(=O)COc5cccc6c5CN(C5CCC(=O)NC5=O)C6=O)CC4)C3)c12` (stereo not drawn) [Compound 302, 6-Chloro-1-(2-(7-(2-((2-(2,6-dioxopiperidin-3-yl)-1-oxoisoindolin-4-yl)oxy)acetyl)-2,7-diazaspiro[3.5]nonan-2-yl)ethyl)-3-(3-((6-fluoronaphthalen-1-yl)oxy)propyl)-7-(1,3,5-trimethyl-1H-pyrazol-4-yl)-1H-indole-2-carboxylic acid]: the EC50 in assay [2] is < 10 nM.
Take `Cc1nn(C)c(C)c1-c1c(Cl)ccc2c(CCCOc3cccc4cc(F)ccc34)c(C(=O)O)n(CCN3CC4(C3)CN(C(=O)COc3cccc5c3CN(C3CCC(=O)NC3=O)C5=O)C4)c12` (stereo not drawn) [Compound 303]: in assay [2], the EC50 was < 100 nM.
Same read-out and setting: the value for `Cc1nn(C)c(C)c1-c1c(Cl)ccc2c(CCCOc3cccc4cc(F)ccc34)c(C(=O)O)n(CCN3CC4(CCCN(C(=O)COc5cccc6c5CN(C5CCC(=O)NC5=O)C6=O)C4)C3)c12` (stereo not drawn) [Compound 304, 6-Chloro-1-(2-(6-(2-((2-(2,6-dioxopiperidin-3-yl)-1-oxoisoindolin-4-yl)oxy)acetyl)-2,6-diazaspiro[3.5]nonan-2-yl)ethyl)-3-(3-((6-fluoronaphthalen-1-yl)oxy)propyl)-7-(1,3,5-trimethyl-1H-pyrazol-4-yl)-1H-indole-2-carboxylic acid] was < 100 nM; that for `Cc1nn(C)c(C)c1-c1c(Cl)ccc2c(CCCOc3cccc4cc(F)ccc34)c(C(=O)O)n(CCN3CC4(CCN(C(=O)COc5cccc6c5CN(C5CCC(=O)NC5=O)C6=O)C4)C3)c12` (stereo not drawn) [Compound 305, 6-Chloro-1-(2-(6-(2-((2-(2,6-dioxopiperidin-3-yl)-1-oxoisoindolin-4-yl)oxy)acetyl)-2,6-diazaspiro[3.4]octan-2-yl)ethyl)-3-(3-((6-fluoronaphthalen-1-yl)oxy)propyl)-7-(1,3,5-trimethyl-1H-pyrazol-4-yl)-1H-indole-2-carboxylic acid] was < 100 nM.
On to `Cc1nn(C)c(C)c1-c1c(Cl)ccc2c(CCCOc3cccc4cc(F)ccc34)c(C(=O)O)n(CCC3CCC(NC(=O)COc4cccc5c4CN(C4CCC(=O)NC4=O)C5=O)CN3C)c12` (stereo not drawn) [Compound 306, 6-Chloro-1-{2-[5-(2-{[2-(2,6-dioxopiperidin-3-yl)-1-oxo-2,3-dihydro-1H-isoindol-4-yl]oxy}acetamido)-1-methylpiperidin-2-yl]ethyl}-3-{3-[(6-fluoronaphthalen-1-yl)oxy]propyl}-7-(1,3,5-trimethyl-1H-pyrazol-4-yl)-1H-indole-2-carboxylic acid], for which the IC50 in assay [1] was > 10000 nM; in assay [3], ≤ 100 nM. For the same compound, in assay [2], the EC50 was < 10 nM.
With `Cc1nn(C)c(C)c1-c1c(Cl)ccc2c(CCCOc3cccc4cc(F)ccc34)c(C(=O)O)n(CCN3CCN(C(=O)C(C)(C)Oc4cccc5c4CN(C4CCC(=O)NC4=O)C5=O)CC3)c12` (stereo not drawn) [Compound 311, 6-Chloro-1-{2-[4-(2-{[2-(2,6-dioxopiperidin-3-yl)-1-oxo-2,3-dihydro-1H-isoindol-4-yl]oxy}-2-methylpropanoyl)piperazin-1-yl]ethyl}-3-{3-[(6-fluoronaphthalen-1-yl)oxy]propyl}-7-(1,3,5-trimethyl-1H-pyrazol-4-yl)-1H-indole-2-carboxylic acid], the EC50 in assay [2] was < 100 nM.
Take `Cc1nn(C)c(C)c1-c1c(Cl)ccc2c(CCCOc3cccc4cc(F)ccc34)c(C(=O)O)n(CCN3CCN(C(=O)CSc4cccc5c4CN(C4CCC(=O)NC4=O)C5=O)CC3)c12` (stereo not drawn) [Compound 322, 6-Chloro-1-(2-(4-(2-((2-(2,6-dioxopiperidin-3-yl)-1-oxoisoindolin-4-yl)thio)acetyl)piperazin-1-yl)ethyl)-3-(3-((6-fluoronaphthalen-1-yl)oxy)propyl)-7-(1,3,5-trimethyl-1H-pyrazol-4-yl)-1H-indole-2-carboxylic acid]: in assay [2], the EC50 was < 100 nM.
Consider `Cc1nn(C)c(C)c1-c1c(Cl)ccc2c(CCCOc3cccc4cc(F)ccc34)c(C(=O)O)n(CCN3CCC(C(=O)N4CCN(c5cc6c(cc5F)C(=O)N(C5CCC(=O)NC5=O)C6=O)CC4)CC3)c12` (stereo not drawn) [Compound 333, 6-Chloro-1-[2-(4-{4-[2-(2,6-dioxopiperidin-3-yl)-6-fluoro-1,3-dioxo-2,3-dihydro-1H-isoindol-5-yl]piperazine-1-carbonyl}piperidin-1-yl)ethyl]-3-{3-[(6-fluoronaphthalen-1-yl)oxy]propyl}-7-(1,3,5-trimethyl-1H-pyrazol-4-yl)-1H-indole-2-carboxylic acid], for which the EC50 in assay [2] is < 10 nM. In addition, the IC50 in assay [3] was ≤ 1000 nM.
In the case of `Cc1noc(C)c1-c1c(Cl)ccc2c(CCCOc3cccc4cc(F)ccc34)c(C(=O)O)n(CCN3CCN(C(=O)COc4cccc5c4CN(C4CCC(=O)NC4=O)C5=O)CC3)c12` (stereo not drawn) [Compound 347, 6-Chloro-7-(3,5-dimethylisoxazol-4-yl)-1-(2-(4-(2-((2-(2,6-dioxopiperidin-3-yl)-1-oxoisoindolin-4-yl)oxy)acetyl)piperazin-1-yl)ethyl)-3-(3-((6-fluoronaphthalen-1-yl)oxy)propyl)-1H-indole-2-carboxylic acid], in assay [2], the EC50 was < 100 nM.
